Data taken from patent US11661398B2, “Cellular transport system for transferring a sulfonic acid construct carrying a cargo into the cytoplasm of a cell” (Scientist of Fortune, S.A., priority 2017, dated 2023).
Structures can show the parent of a compound that is named as a salt.

How the values were obtained:
PnGGT ΔN24 D405N [1] = biological target: T1, PnGGT ΔN24 D405N (Pseudomonas nitroreducens, UniProt E0D5C2, D405N); experiment: Kinetic measurements with purified PnGGT ΔN24 D405N; format: biochemical; details: purified enzyme, 50 mM Tris-HCl (pH 9.0)
T1 sequence (E0D5C2 with tags, fused parts or gaps D405N): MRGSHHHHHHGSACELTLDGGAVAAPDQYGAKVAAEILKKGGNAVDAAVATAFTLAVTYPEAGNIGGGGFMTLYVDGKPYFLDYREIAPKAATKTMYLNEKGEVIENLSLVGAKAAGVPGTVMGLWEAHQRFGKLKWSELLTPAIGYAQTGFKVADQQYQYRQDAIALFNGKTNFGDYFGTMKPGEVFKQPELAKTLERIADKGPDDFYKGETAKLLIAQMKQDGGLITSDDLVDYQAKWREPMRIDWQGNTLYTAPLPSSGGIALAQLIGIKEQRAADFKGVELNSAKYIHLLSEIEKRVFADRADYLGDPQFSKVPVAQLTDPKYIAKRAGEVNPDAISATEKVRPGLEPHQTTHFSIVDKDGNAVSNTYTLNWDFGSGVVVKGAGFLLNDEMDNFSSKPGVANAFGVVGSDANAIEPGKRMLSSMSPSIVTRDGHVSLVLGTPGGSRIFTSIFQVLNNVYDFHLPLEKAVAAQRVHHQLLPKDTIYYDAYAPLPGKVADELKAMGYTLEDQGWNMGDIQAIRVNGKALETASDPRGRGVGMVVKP
Description: For the experiments relating to the sulfonate based synthetic transport system, purification of PnGGT ΔN24 and PnGGT ΔN24 D405N containing an N-terminal 6×His-tag was performed according to previous reports (Van Dyke et al., 1992) using Ni-NTA Superflow (Qiagen, Hilden, Germany). For kinetic studies, PnGGT variants were purified with the aid of the 6×His-tag located at the N-terminal end of the large subunit following the same procedure. To exchange the buffer, purified proteins were dialyzed against 50 mM Tris/HCl (pH 7.0).
To determine the kinetic parameters of PnGGT ΔN24 and PnGGT ΔN24 D405N the purified enzymes were preincubated in 50 mM Tris-HCl (pH 9.0). To start the reaction, varying concentrations of the substrates L-glutamic acid γ-(3-carboxy-4-nitroanilide) or sulfobutanoyl-p-nitroanilide were added to the mixtures. The results were evaluated using GraphPad Prism (GraphPad Software, La Jolla, Calif., USA).

EcGGT ΔN24 D433N = biological target: T2, EcGGT ΔN24 D433N (Escherichia coli, UniProt P18956, D433N); experiment: Colorimetric GGT assay in whole cell lysates; format: biochemical, E. coli; details: whole cell lysate, 4 mM substrate, 50 mM Tris-HCl (pH 9.0), 410 nm
T2 construct: made in house; host or cells: E. coli (pACT3 plasmid); assayed in whole cell lysate
Description: To test for the desired activity a colorimetric enzyme assay was chosen and the substrate sulfobutanoyl-p-nitroanilide was synthesized for this purpose. Hydrolysis of this colorless substrate by a GGT variant into sulfobutanoic acid and the yellow dye 4-nitroaniline can be quantified photometrically at 410 nm. For that, cytoplasmic GGT variants containing an N-terminal 6×His-tag were first expressed from E. coli (EcGGT ΔN24) and Pseudomonas nitroreducens (PnGGT ΔN24), as well as EcGGT ΔN24 D433N and the corresponding mutant variant PnGGT ΔN24 D405N. Position D405 of PnGGT was identified to fulfill the same function as position D433 of EcGGT by sequence alignment and homology modeling between EcGGT and PnGGT. Then the ability of whole cell lysates containing the respective enzymes was tested to hydrolyze L-glutamic acid γ-(3-carboxy-4-nitroanilide) or sulfobutanoyl-p-nitroanilide.

PnGGT ΔN24 D405N [2] = biological target: T1, PnGGT ΔN24 D405N; experiment: Colorimetric GGT assay in whole cell lysates / cell free extracts; format: biochemical; details: whole cell lysate, 4 mM substrate, 50 mM Tris-HCl (pH 9.0), 410 nm
Description: FIG. 22: Identification of GGT* activity and refactoring of the ssuABC operon. […] The release of 4-nitroaniline was quantified by measuring the absorption at 410 nm. (b) Plasmid map of the three-dimensional RBS-library for refactoring the ssuABC operon using 144 RBS variants per gene. RBS library sequences are underlined. Arrows point towards the final RBS sequences observed in plasmid pSsuABC. […] (e) Growth of strain TK088[pSsuABC]transformed with the empty vector pACT3 (black circles) or plasmid pPnGGT* (white circles) in liquid MS minimal medium supplemented with 0.5% glucose, 1 mM MgSO4, 0.4 mM L-leucine, 0.5 mM IPTG, 100 ng ml^−1 aTc and 0.5 mM sulfobutanoyl-L-histidine. Bars and dots from panels (a), (d) and (e) represent the average of three independent measurements with standard deviations shown as error bars.
To test for the desired activity a colorimetric enzyme assay was chosen and the substrate sulfobutanoyl-p-nitroanilide was synthesized for this purpose. Hydrolysis of this colorless substrate by a GGT variant into sulfobutanoic acid and the yellow dye 4-nitroaniline can be quantified photometrically at 410 nm. For that, cytoplasmic GGT variants containing an N-terminal 6×His-tag were first expressed from E. coli (EcGGT ΔN24) and Pseudomonas nitroreducens (PnGGT ΔN24), as well as EcGGT ΔN24 D433N and the corresponding mutant variant PnGGT ΔN24 D405N. […]

BW25113 ΔleuB (TK080) = experiment: Growth on different sulfur sources; format: cell-based, E. coli; details: 1 mM sulfur source, minimal medium, 0.5% glucose, 0.4 mM leucine
Description: FIG. 21: Growth of E. coli on sulfonates. Strains TK080 (a; BW25113 ΔleuB) and TK082 (b; BW25113 ΔleuB ΔssuEADCB ΔtauD) were grown in MS minimal medium supplemented with 0.5% glucose, 0.4 mM L-leucine, 1 mM MgCl2 and 1 mM of a sulfur source. TK080 was able to use the majority of the tested sulfur sources with a similar efficiency as sulfate. […] Dots represent the average of three independent measurements with standard deviations shown as error bars.
For the experiments relating to the sulfonate based synthetic transport system, unless stated otherwise, growth experiments in selective medium were carried out in sulfur free MS minimal medium (4 mM citric acid, 1 mM MgCl2, 20 mM NH4Cl, 50 mM KH2PO4 and 1×NTA mix (10 μM nitrilotriacetic acid, 3 μM CaCl2, 3 μM FeCl3, 1 μM MnCl2, 0.3 μM ZnCl2, 0.3 μM H3B3, 0.3 μM CrC3, 0.3 μM COCl2, 0.3 μM CuCl2, 0.3 μM Ni2C, 0.3 μM Na2MoO4, 0.3 μM Na2SeO3)) supplemented with 0.5% glucose. MgSO4 (1 mM), MgCl2 (1 mM), L-leucine (0.4 mM), IPTG (0.5 mM), aTc (100 ng mL-1), nicotinic acid (various concentrations), 3-picolylamine (various concentrations) and sulfonates (various concentrations) as indicated in the text. […] Synthesis schemes for sulfobutanoyl-p-nitroanilide and other sulfonates are given below.
The sulfonate transporters SsuABC and TauABC transport a wide variety of sulfonate compounds (Eichhorn et al., 2000) and can thus be exploited for the present synthetic transport system. As such, the uptake and utilization of sulfobutanoyl-L-leucine was assessed. The leucine auxotrophic strain BW25113 ΔleuB was tested for growth in minimal medium supplemented with 0.5% glucose, 0.4 mM leucine, 0.4 mM isoleucine and 1 mM of a sulfur-containing compound as the sole sulfur source.

T2 sequence (P18956 25-390): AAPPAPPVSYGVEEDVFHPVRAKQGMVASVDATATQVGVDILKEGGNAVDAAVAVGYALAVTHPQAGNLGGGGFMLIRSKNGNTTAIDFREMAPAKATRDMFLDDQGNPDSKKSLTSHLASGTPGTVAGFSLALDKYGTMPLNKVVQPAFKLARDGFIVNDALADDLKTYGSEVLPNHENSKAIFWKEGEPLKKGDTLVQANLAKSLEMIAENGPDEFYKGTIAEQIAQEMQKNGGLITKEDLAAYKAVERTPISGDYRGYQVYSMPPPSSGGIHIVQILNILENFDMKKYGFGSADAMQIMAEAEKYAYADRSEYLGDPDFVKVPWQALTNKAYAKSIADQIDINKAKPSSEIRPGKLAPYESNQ
T2 sequence (P18956 391-580 D433N): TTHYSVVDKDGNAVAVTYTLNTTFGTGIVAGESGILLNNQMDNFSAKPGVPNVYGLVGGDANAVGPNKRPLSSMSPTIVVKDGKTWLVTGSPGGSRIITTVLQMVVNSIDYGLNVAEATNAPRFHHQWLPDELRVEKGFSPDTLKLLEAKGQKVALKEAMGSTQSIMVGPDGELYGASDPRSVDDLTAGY

In the case of `O=C(CCCS(=O)(=O)O)Nc1ccc([N+](=O)[O-])cc1` [sodium salt], the Km (PnGGT ΔN24 D405N [1]) is reported as 767 µM, the Vmax (PnGGT ΔN24 D405N [1]) is reported as 10.35 ± 0.28 µmol/min/mg and the kcat (PnGGT ΔN24 D405N [1]) is reported as 10.2 s⁻¹. For the same compound, the hydrolysis of substrate (EcGGT ΔN24 D433N) was “acquired the ability to hydrolyze”, the hydrolysis of substrate (PnGGT ΔN24 D405N [2]) was “significantly higher activity than EcGGT ΔN24 D433N” and the “growth with compound as sole sulfur source” value (BW25113 ΔleuB (TK080)) was “comparable to growth on other sulfonates”.
